Experiments:
Format in all cases: cell-based, Escherichia coli
[1] = tested on: E. coli strain lacking TEM (ATCC 25922); test: Structured illumination microscopy, inclusion bodies in strain lacking TEM; settings: 12 μM, 120 min, pFTAA stain, SIM
Source text: (§1) Fig. 5 Induction of aggregation in cells. […] A single representative image is shown. […] A single representative image is shown. C SIM and brightfield images as in A, but for E. coli ATCC strain. […] A single representative image is shown. […] A single representative blot is shown. […] The corrected P-values were 0.6091, 0.0029, 0.0027, <0.0001, and 0.9992, from left to right. […] Statistics exactly as in E, but from 3 independent experiments. The corrected P-values were 0.8753, 0.9796, 0.0001, 0.0003, and 0.0003, from left to right. Source data are provided as a Source Data file.
The bacterial cultures were washed with PBS, and the number of bacteria was adjusted to 10^8–10^9 cells/mL. […] Then, cells were treated with LCO dyes (pFTAA; Amytacker^TM680 or Amytacker^TM545: final concentration of 0.5 µM; Ebba Biotech, Sweden) for at least 90 min. The absorption, emission, and excitation spectra for each dye were measured based on the standard Ebbabiotec advice (ebbabiotech.com).
Bacteria were fixed by adding 2.5% paraformaldehyde and 0.04 % glutaraldehyde (final concentrations) to the culture media, followed by incubation at room temperature for 15 min and 30 min on ice. Bacteria were then washed in PBS and resuspended in GTE buffer (50 mM glucose, 25 mM Tris, and 10 mM EDTA, pH 8.0). Directly preceding microscopic analysis, cells were transferred to a glass slide and covered with a coverslip. […]

[2] = tested on: SHV beta-lactamase in E. coli SHV-11; test: Western blot of inclusion body fraction; settings: 12 μM peptide in PBS, 120 min
Source text: as §1
Overnight cultures of bacteria were centrifuged for 30 min at 4000 × g and cells were washed with physiological water (NaCl 0.9%). Bacterial cells were treated by peptide at the appropriate concentration for at least 2 h at 37 C. The bacterial pellets were washed with 10 mL buffer A (50 mM HEPES, pH 7.5, 300 mM NaCl, 5 mM β-mercaptoethanol, 1.0 mM EDTA) and centrifuged at 4 °C for 30 min at 4000 × g. […]

[3] = tested on: E. coli SHV11; test: Checkerboard assay (FICI); settings: strain containing SHV-11, FICI below 0.5 = synergy
Method: To quantify the synergy between these four peptides and penicillin G, we performed a so-called checkerboard assay, which allows us to compare the activity of two test compounds co-incubated (here peptide and a beta-lactam antibiotic), to their individual activities in isolation. […] We evaluated the synergy of the peptides with penicillin G in clinical E. coli isolates carrying the TEM (Fig. 3D) or SHV enzymes (Fig. 3E). […] The list of strains included some that harbored only TEM or SHV, but others contained additional Ambler Class A (CTX-M or OXA) or Class B (VIM and NDM) beta-lactamases.
For the analysis of synergy between the peptides and other antibiotics, a checkerboard assay was performed. Based on the MICs of the selected peptides, a checkerboard assay was designed to define their FICIs (Fractional Inhibitory Concentration Index) in combinations against different clinical isolates[53],[54]. Briefly, a total volume of 100 μL of Mueller–Hinton broth was distributed into each well of the 96-well plates. […] FICI is calculated as the sum of the individual fractional inhibitory concentrations (FICs) for each drug (where MIC A and MIC B denote the MIC of each drug alone, and MIC AA+B and MIC BA+B denote the concentrations of A and B in the drug combination). […]

[4] = tested on: clinical isolates of E. coli containing TEM or SHV enzymes; test: MIC of ampicillin with or without 30 µg/mL TEM3.2 in clinical isolates; settings: 30 μg/mL TEM3.2; 14 out of 16 isolates
Method: Determination of MIC values was performed using the broth microdilution method according to the EUCAST guideline, which was performed in 96-well polystyrene flat-bottom microtiter plates (BD Biosciences). Briefly, a single colony was inoculated into 5 mL Difco™ Mueller–Hinton Broth (BD Biosciences Ref 275730) and grown to the end-exponential growth phase in a shaking incubator at 37 °C. Cultures were subsequently diluted to a MacFarland (0.5 optical density) to reach 10^6 CFU/mL in fresh MHB medium. 50 µl of different concentrations of peptides ranging from 128 to 2 µg/mL were serially diluted to the sterile 96-well plate in MHB. 50 µL of the diluted bacteria in MHB were next pipetted into 96-well plates to reach the final volume of 100 µL. The bacteria grown with the maximum concentration of carrier and medium were considered positive and negative controls, respectively. The plates were statically incubated overnight at 37 °C to allow bacterial growth. OD was measured at 590 nm using a multipurpose ultraviolet–visible plate reader, and the absorbance of the bacterial growth was measured using an absorbance reader.

Ac-RLTAFLHNRRPRLTAFLRQRR-NH2 [TEM3.2]
inclusion body formation (in words) [1]: only very limited inclusion body formation | SHV enzyme in inclusion body fraction, western blot (in words) [2]: accumulates in IBs | synergy with penicillin G (in words) [3]: showed synergy in both strains | clinical isolates containing TEM or SHV sensitized to Ampicillin [4]: 87%
